Source: US12559863B2, “Macrocyclic modulators of disease associated protein misfolding and aggregation” (RESQ BIOTECH, priority 2017, dated 2026)
Where a SMILES comes first, the peptide text is derived from it.

What was measured:
Aβ40 [1] = biological target: T1, Aβ40 (Homo sapiens, UniProt P05067); test: Circular dichroism of Aβ40 with cyclic peptide; type: biochemical; conditions: 50 μM Aβ, 33° C., 30 d
T1 construct: The main product of APP cleavage consists of 40 amino acids (Aβ40); purchased Eurogentec, Belgium; host or cells: chemical synthesis
Procedure: Synthetic Aβ40 and Aβ42 peptides were gently dissolved without vortexing in doubly deionized water to a final concentration of 100 μM. These solutions were then diluted by PBS addition (10 mM, pH 7.33) to achieve a final Aβ concentration of 50 μM.
Appropriate amounts of synthetic cyclic peptides were added to either 40 μM SOD1(A4V) or 50 μM Aβ solutions at the desired cyclic peptide:target protein molar ratio. SOD1(A4V) structural changes were monitored for 90 d at 25° C., under quiescent conditions. Aβ structural changes were monitored for 30 d at 33° C. under quiescent conditions. CD spectra in the range 190-260 nm were recorded on a JASCO J-715 spectropolarimeter (Jasco Co., Japan) using quartz cuvettes with 1 mm path length. Each reported spectrum is the average of three scans at a rate of 100 nm·min^−1 and a resolution of 0.5 nm.

Aβ40 [2] = biological target: T1, Aβ40; test: Thioflavin T dye-binding assay of Aβ40; type: biochemical; conditions: 30-d aged CD solutions
Procedure: For Aβ ThT staining, 100 μL of the 30-d aged 50 μM CD solutions were diluted in PBS (10 mM, pH 7.33) to form a 25 μM Aβ solution with 200 μL final volume. 2.5 μL from a stock solution of ThT (Sigma-Aldrich, USA) in PBS (10 mM, pH 7.33) was added to the prepared Aβ solutions to achieve a final ThT concentration of 5 μM. The mixture was agitated adequately by pipetting and immediately thereafter, fluorescence was monitored with excitation at 440 nm (EM slit=2.5 nm, PMT Voltage 700 V, response 0.4 s) using a HITACHI F-2500 (Japan) spectrofluorometer.

Aβ42 = biological target: T2, Aβ42 (Homo sapiens, UniProt P05067); test: Transmission electron microscopy of Aβ42; type: biochemical; conditions: 50 μM Aβ42 with 100 μM peptide, 30-d aged
T2 construct: one of the secondary products yields a 42-amino-acid-long peptide (Aβ42); purchased Eurogentec, Belgium; host or cells: chemical synthesis
Procedure: For TEM analysis, the 30-d aged 50 μM CD solutions of Aβ42 (with 100 μM of the selected peptides or without) was mixed well by pipetting. 2 μL of this solution were placed in a carbon-coated film on 200-mesh copper grids (Agar Scientific, UK) for 5 min. After adsorption, grids were washed in deionized water and negatively stained by applying a 2-μl drop of freshly prepared 1% (w/v) uranyl acetate (Sigma-Aldrich, USA) in Milli-Q water for 5 min. Excess fluid was blotted off, and grids were washed in deionized water and dried in air. Images were recorded using a FEI CM20 electron microscope (FEI, USA) with a Gatan GIF200 imaging filter (Gatan, USA), equipped with a Peltier-cooled slow-scan CCD camera.

[3] = system: Aβ-exposed neuronal cells; test: Phase-contrast microscopy of Aβ-exposed neuronal cells; type: cell-based, mouse; conditions: pre-aggregated Aβ
Procedure: Solutions of synthetic Aβ40 or Aβ42 (10 μM) in PBS, preincubated at 37° C. (3 d for Aβ40 solutions and 1 d for Aβ42 solutions) in the presence or absence of synthetic cyclic peptides (1:1 and 2:1 ratio of peptides:Aβ), were diluted with fresh medium and transferred into wells at a 1 μM final Aβ concentration. Cell viability was determined using the MTT assay. MTT (3-[4,5-dimethylthiazol-2-yl]-2,5-diphenyl tetrazolium bromide) was purchased from Applichem (Germany). After 24 h of exposure to Aβ solutions, 100 μL of a 0.5 mg/mL stock solution of MTT in Neurobasal-A was added to each well of primary hippocampal neurons followed by a 3 h incubation at 37° C., while 100 μL of a 1 mg/mL stock solution of MTT in DMEM complete medium was added to each well of U87MG cells followed by a 4 h incubation at 37° C. The medium was then removed and the cells were diluted in DMSO. The relative formazan concentration was measured by determination of the absorbance at 540 nm using a plate reader (Tecan, Austria). Results were expressed as the percentage of MTT reduction, assuming that the absorbance of control (untreated) cells was 100%, and represent the mean of three independent experiments with six replicate wells for each condition. Induced cell death was also qualitatively examined by phase-contrast microscopy (Carl Zeiss, Axiovert 25 CFL, Germany) using the above solutions. […]

[4] = system: C. elegans strain CL2006 (human Aβ42 in body wall muscle cells); test: Paralysis assay in C. elegans CL2006 fed peptide-producing E. coli OP50; type: in vivo, Caenorhabditis elegans; conditions: fed throughout lifespan with E. coli OP50 producing the peptide
Excerpt: To evaluate the protective effects of the selected cyclic peptides against Aβ aggregation and toxicity in vivo, the inventors employed two established models of AD in the nematode worm Caenorhabditis elegans. The conservation of genetic and metabolic pathways between C. elegans and mammals, in combination with its completely characterized nervous and muscular system, its easy visualization and simple manipulation, has nominated C. elegans as an excellent model for neurodegenerative diseases including AD, while chemical screening against Aβ-induced toxicity in C. elegans is increasingly used in AD drug discovery. The inventors performed initially a paralysis assay in CL2006, a strain where human Aβ42 is constitutively expressed in the body wall muscle cells of the animals and Aβ aggregate formation is accompanied by adult-onset paralysis. […] To evaluate the state of Aβ aggregation in vivo, we utilized the strain CL2331, which expresses an Aβ3-42-GFP fusion in its body wall muscle cells upon temperature up-shift.

[5] = system: C. elegans strain CL4176 (human Aβ42); test: Dot blot analysis of total and oligomeric Aβ in C. elegans CL4176; type: in vivo, Caenorhabditis elegans; conditions: for accumulation level of total Aβ, CL4176: antibody 6E10; for accumulation level of oligomeric Aβ, CL4176: antibody AB9234
Procedure: CL4176 animals were allowed to lay eggs for 3 h on NGM plates containing either synthetic peptides or 0.26% DMSO. Paralysis was induced upon temperature up-shift and the progeny were exposed to either pure peptides or 0.26% DMSO until 50% of the control population was paralyzed. The animals were then collected and boiled in non-reducing Laemmli buffer. For dot blot analysis, 1-5 μg of protein lysates were spotted onto 0.2 μm nitrocellulose membranes (Bio-Rad, USA) after soaking into TBS pre-heated at 80° C. Immunoblotting was performed using the anti-Aβ antibody 6E10 (recognizes total Aβ) and the anti-amyloid protein, oligomer-specific antibody AB9234 (Merck Millipore, Germany). Actin was used as a loading control. Blots were developed with chemiluminescence by using the Clarity™ Western ECL substrate (Bio-Rad, USA). Quantification of the ratio of each detected protein to actin using the anti-actin antibody sc-1615 (Santa Cruz, Germany), and normalization to control appears next to each representative blot.

`C[C@@H]1NC(=O)[C@H](CO)NC(=O)[C@H]([C@@H](C)O)NC(=O)[C@@H]2CCCN2C(=O)[C@H](CO)NC1=O` [AβC5-34, cyclo-SASPT] (cyclo(ASPTS)) was tested, and the “effect on aggregation process of Aβ40 (CD)” value (“effect on aggregation process” for short) (Aβ40 [1]) was “did not have the same effect and resulted in the appearance of a low-intensity negative peak”, the “Aβ40 fibril formation (ThT)” value (Aβ40 [2]) was “almost unaffected” and the “Aβ42 fibrils by TEM” value (Aβ42) was “notably fewer, shorter and ill-developed”. The “morphology of Aβ-exposed neuronal cells” value [3] was “marked recovery of the Aβ-induced alterations”, the “appearance of paralysis phenotype, CL2006” value [4] was “significant delay” and the “accumulation level of total Aβ, CL4176” value [5] was “significant reduction of both Aβ species”. For the same compound, the “accumulation level of oligomeric Aβ, CL4176” value [5] was “significant reduction of both Aβ species”.

For `C[C@@H]1NC(=O)[C@H]([C@@H](C)O)NC(=O)[C@H](CCCNC(=N)N)NC(=O)[C@H](CC(=O)O)NC(=O)[C@H](Cc2ccccc2)NC1=O` [AβC5-116, cyclo-TAFDR] (cyclo(AFDRT)), the “effect on aggregation process” value (Aβ40 [1]) was “strongly inhibit the aggregation of Aβ40”, the “Aβ40 fibril formation (ThT)” value (Aβ40 [2]) was “reduced” and the “Aβ42 fibrils by TEM” value (Aβ42) was “notably fewer, shorter and ill-developed”. The “morphology of Aβ-exposed neuronal cells” value [3] was “marked recovery of the Aβ-induced alterations”, the “appearance of paralysis phenotype, CL2006” value [4] was “significant delay” and the “accumulation level of total Aβ, CL4176” value [5] was “significant reduction of both Aβ species”. For the same compound, the “accumulation level of oligomeric Aβ, CL4176” value [5] was “significant reduction of both Aβ species”.

In the case of cyclo-TWSVW (cyclic) [SOD1C5-4], the “effect on aggregation process” value (Aβ40 [1]) is reported as “did not have any effect” and the “Aβ40 fibril formation (ThT)” value (Aβ40 [2]) is reported as “did not have any effect”.
